Test results reported in ChEMBL document CHEMBL3507680, “University of Dundee, Gates Library screen for HepG2 cell viability”.

Test: Human HepG2 cell viability assay in 384 well format
Format: toxicity, cell-based
Parameters: dose 125 nL, time 70.5 hour; concentration not given beside the values
Conditions: HepG2 cells, read-out: Inhibition

CC(C)C(=O)Nc1cccc(CNC(=O)CSCc2ccccn2)c1
cytotoxicity at 70.5 h: -11.7%

CC(C(=O)NCC(C)(C)c1ccc2c(c1)OCCO2)n1cncn1 (configuration not stated)
cytotoxicity at 70.5 h: 0.318%

CC(CNS(N)(=O)=O)Oc1cccc(Cl)c1 (configuration not stated)
cytotoxicity at 70.5 h: -0.0153%

O=C(NC1CCS(=O)(=O)C1)c1ccccc1SCc1cscn1 (configuration not stated)
cytotoxicity at 70.5 h: -9.17%

O=C(NC1CCS(=O)(=O)C1)c1ccc(SCc2cscn2)cc1 (configuration not stated)
cytotoxicity at 70.5 h: -6.01%

Cc1noc(C(C)Nc2ccc3oc(C(C)C)nc3c2)n1 (configuration not stated)
cytotoxicity at 70.5 h: 1.64%

CCc1ccsc1C(=O)N(C)CCc1ccncc1
cytotoxicity at 70.5 h: -1.38%

CCc1c(C(=O)N2CCOC(C)(C)C2)cnn1-c1ccccn1
cytotoxicity at 70.5 h: -2.04%

Cc1nnc(NC(=O)NCc2ccc(C)n2C)s1
cytotoxicity at 70.5 h: 13.4%

CC(C)CC(C#N)NC(=O)CCNC(=O)C(C)(C)C (configuration not stated)
cytotoxicity at 70.5 h: 2.87%

Cc1ccc(C(=O)NCC(C)Cn2ccnc2C)c(=O)[nH]1 (configuration not stated)
cytotoxicity at 70.5 h: 0.288%

COCCS(=O)(=O)N(Cc1ccsc1)c1ccccc1
cytotoxicity at 70.5 h: 2.67%

CC(CNS(C)(=O)=O)Oc1cccc(Cl)c1 (configuration not stated)
cytotoxicity at 70.5 h: 3.7%

Cn1ccnc1C(=O)NCCS(=O)(=O)c1ccc(C(C)(C)C)cc1
cytotoxicity at 70.5 h: -3.28%

CN(C)c1nc(CNC(=O)NC2COc3ccccc32)cs1 (configuration not stated)
cytotoxicity at 70.5 h: 2.4%

CSc1c[nH]nc1NS(=O)(=O)c1cc(F)ccc1C
cytotoxicity at 70.5 h: -3.64%

CN(C)C(=O)N1CCN(Cc2cnc(-c3ccsc3)s2)CC1
cytotoxicity at 70.5 h: -11.7%

O=C(CC1OCCc2ccccc21)NCC1(O)CCCCC1 (configuration not stated)
cytotoxicity at 70.5 h: -2.94%

CC(C)CCC(=O)NC(C#N)CC(C)C (configuration not stated)
cytotoxicity at 70.5 h: 3.54%

Cc1ccc(-c2ncc(CN3CCN(C(=O)N(C)C)CC3)s2)o1
cytotoxicity at 70.5 h: -7.74%

CN(Cc1ccc(F)cc1F)Cc1cc2c(cc1Br)OCCO2
cytotoxicity at 70.5 h: -6.67%

Cc1ccc(CN(C(=O)NC2CCS(=O)(=O)C2)C2CC2)o1 (configuration not stated)
cytotoxicity at 70.5 h: -7.82%

O=C(NCC1CCS(=O)(=O)C1)N(Cc1ccco1)C1CC1 (configuration not stated)
cytotoxicity at 70.5 h: -10.7%

O=C(Cc1c(F)cccc1Cl)Nc1cccc(N2CCCC2)c1
cytotoxicity at 70.5 h: -4.34%

CCC(CNC(=O)CCn1cncn1)N1CCc2ccccc2C1 (configuration not stated)
cytotoxicity at 70.5 h: 7.08%

CCN(CC)C(CNC(=O)c1ccnc(N(C)C)c1)c1ccsc1 (configuration not stated)
cytotoxicity at 70.5 h: -5.28%

Cc1ccc(-c2cc(CNC(=O)NC3CCCCNC3=O)on2)cc1 (configuration not stated)
cytotoxicity at 70.5 h: -8.17%

Cc1ccc(CN(C(=O)NCC2CCCO2)C2CC2)o1 (configuration not stated)
cytotoxicity at 70.5 h: -9.69%

CC(CNC(=O)CCn1cncn1)N1CCc2ccccc21 (configuration not stated)
cytotoxicity at 70.5 h: -1.72%

CC(C)CC(=O)N1Cc2ccccc2CC1C(=O)Nc1nccs1 (configuration not stated)
cytotoxicity at 70.5 h: -8.5%

CCc1ncc2c(n1)CN(c1nnc(C)c(C)c1C#N)CC2
cytotoxicity at 70.5 h: 5.31%

CCOC(=O)C1(O)CCN(C(=O)Nc2cccc(CC)c2)CC1
cytotoxicity at 70.5 h: -0.303%

O=C(NCCc1ccncc1)c1cccc(S(=O)(=O)NC2CC2)c1
cytotoxicity at 70.5 h: 1.33%

NC(=O)c1ccc(N2CCN(CCCc3cn[nH]c3)CC2)cc1
cytotoxicity at 70.5 h: -0.688%

Cc1ccc(C)n1-c1ccsc1C(=O)NCC(=O)N1CCCC1
cytotoxicity at 70.5 h: -1.31%

NC(=O)COc1cccc(CN2CCCC2c2ccc[nH]2)c1 (configuration not stated)
cytotoxicity at 70.5 h: -5.09%

Cc1cc(NC(=O)N2CCCC(O)C2)nn1-c1ccccc1Cl (configuration not stated)
cytotoxicity at 70.5 h: -5.66%

Cn1c(=O)ccn(CC(=O)NCC2Cc3ccccc3O2)c1=O (configuration not stated)
cytotoxicity at 70.5 h: -0.993%

CCOCCOC(C)C(=O)Nc1ccc2[nH]c(C)cc2c1 (configuration not stated)
cytotoxicity at 70.5 h: -8.04%

CCSCCC(=O)NCc1cnn(-c2ccc(F)cc2F)c1
cytotoxicity at 70.5 h: 7.31%

CCS(=O)(=O)NC1CCCN(Cc2ccn(C)c(=O)c2)C1 (configuration not stated)
cytotoxicity at 70.5 h: -9.02%

CCOCCOC(C)C(=O)Nc1ccc2c(ccn2CC)c1 (configuration not stated)
cytotoxicity at 70.5 h: -6.19%

Cn1c(NCC(=O)N2CCCCC2)c(C#N)c(=O)n(C)c1=O
cytotoxicity at 70.5 h: -11.6%

CC(=O)N1CCN(C(=O)CCNc2snc(Cl)c2C#N)CC1
cytotoxicity at 70.5 h: -10.6%

CCC(=O)NCC(=O)NC(Cc1ccccc1)c1sccc1C (configuration not stated)
cytotoxicity at 70.5 h: -2.67%

CC(=O)NC1(C(=O)N2CCC(Nc3cccnn3)CC2)CCCCC1
cytotoxicity at 70.5 h: 3.94%

CC(C)(C)NC(=O)CN1CCNCC1
cytotoxicity at 70.5 h: 6.83%
